Measurements as given in US11629174B2, “Cryptic metabolites and method for activating silent biosynthetic gene clusters in actinomycete bacteria” (The Trustees of Princeton University, priority 2017, dated 2023).

How the values were obtained:
Gene cluster 3648 = assay: HiTES in S. avermitilis, gene cluster 3648; type: cell-based; conditions: FIGS. 16 and 17
SAV3643 and SAV3665 = assay: RT-qPCR of SAV3643 and SAV3665 in cluster 3648; type: cell-based, S. avermitilis; conditions: 5 ug/mL, relative to untreated samples
S. avermitilis = assay: Growth inhibition of S. avermitilis by elicitor; type: cell-based; conditions: dose-response series in 2.5 ug/mL steps
Gene cluster 4286 = assay: HiTES in S. erythraea, gene cluster 4286; type: cell-based; conditions: FIG. 13
Gene cluster 2631 = assay: HiTES in S. erythraea, gene cluster 2631; type: cell-based; conditions: FIG. 10
Gene cluster 4143 = assay: HiTES in S. erythraea, gene cluster 4143; type: cell-based; conditions: FIG. 12
Gene cluster 2875 = assay: HiTES in S. erythraea, gene cluster 2875; type: cell-based; conditions: FIG. 11
Gene cluster 4477 = assay: HiTES in S. erythraea, gene cluster 4477; type: cell-based; conditions: FIG. 14
sur cluster = assay: High-throughput elicitor screen (HiTES), eGFPx3 reporter strains of the sur cluster; type: cell-based, Streptomyces albus J1074; conditions: attB::Psur-eGFPx3 and surE::eGFPx3, ~33 μM, 60 h, hit threshold 2.5-fold eGFP fluorescence
Description: These next four steps are seen be referring to the previously described example. In the previously described example, HiTES was carried out using the two constructs seen in FIGS. 2B and 2C with a ˜500-member natural products library. Each S. albus construct was grown in a 96-well format, supplemented with the compound library, and the effect of each compound on the silent BGC determined using eGFP-derived fluorescence. Interference from naturally fluorescent compounds in the library was eliminated by subtracting the […], immediately after addition of the library members.
Referring to FIGS. 3A and 3B, results for both genetic constructs are shown. These graphs show relative expression of a neutral site reporter, attB::Psur-eGFPx3 (FIG. 3A) or targeted sur reporter, surE::eGFPx3 (FIG. 3B) as a function of exogenously-supplied small molecules. Each bar represents the level of expression of sur in the presence of a single candidate elicitor. Plus signs denote the positive control, attB::PermE-eGFPx3. Minus signs denote the negative controls, attB::Psur-eGFPx3 (3A) or surE::eGFPx3 (3B) in the absence of any metabolites. The expression has been normalized to the positive control.
In this example, the threshold amount was a 2.5 fold induction of eGFP-derived fluorescence emission. Thus, hits were considered those that gave at least a 2.5-fold induction of eGFP-derived fluorescence emission. However, in other embodiments, hits may be those giving at least a 2 fold induction, more preferably at least a 3 fold induction, and more preferably at least a 4 fold induction.
Seed cultures for the reporter strains sur::eGFPx3, attB::Psur-eGFPx3, negative control wild-type, and positive control attB::PermE-eGFPx3 inoculated by transferring fresh spores (˜10^7) into 20 mL of YEME medium (per L: 3% (w/v) yeast extract, 5% peptone, 3% malt extract, 1% glucose and 10.7% sucrose, and 5 mM MgCl2.6H2O) in a 125 mL Erlenmeyer flask equipped with stain-less steel springs. The cultures were grown at 30° C. and 250 rpm for 3 days. Mycelia from each of the four cultures were collected by centrifugation (10 min, 3000 g, RT) and diluted into 150 mL of R4 medium to give a final concentration of 0.05% (w/v). R4 medium consisted of (per L) 0.5% (w/v) glucose, 0.1% yeast extract, 0.5% MgCl2.6H2O, 0.2% CaCl2.2H2O, 0.15% proline, 0.118% valine, 0.28% TES, 50 mg/L casamino acid, 100 mg/L K2SO4, and 1× trace element solution, which contains 40 mg/L ZnCl2, 200 mg/L FeCl3.6H2O, 10 mg/L CuCl2.2H2O, 10 mg/L MnCl2.4H2O, 10 mg/L Na2B4O7.10H2O, and 10 mg/L (NH4)6Mo7O24.4H2O).
Subsequently, the two reporter strains (sur::eGFPx3 and attB::Psur-eGFPx3) were each dispensed into 5× sterile, clear-bottom 96-well plates (150 μL per well) using a MultiFlo Microplate Dispenser (BioTek). A separate sterile 96-well separate plate was prepared for positive and negative controls; it contained the negative control (wt S. albus J1074) in columns 1-3, sur::eGFPx3 in columns 4-6, attB::Psur-eGFPx3 in columns 7-9, and the positive control attB::PermE-eGFPx3 in columns 10-12 of the plate. No elicitors were added to the control plates. […] Upon additional of the compound library, t=0 fluorescence reads were recorded on a Synergy H1MF plate reader (BioTek) using Aex=485 nm and Aem=505-650 nm in 5 nm steps. […]

S. albus = assay: Anti-bacterial effect of elicitor on the producing strain; type: cell-based, Streptomyces albus J1074; conditions: at high concentrations
surA and surC = assay: RT-qPCR of surA and surC transcripts in wt S. albus; type: cell-based, Streptomyces albus J1074
Description: In the example above, the effects of these putative elicitors on the sur cluster were validated by performing a RT-qPCR with wt S. albus. Upon exposure of S. albus to each elicitor or DMSO (control), total RNA was be isolated, converted to cDNA and the surA and surC transcripts quantified by qPCR. […] To further verify the effect of 1 and 2, a dose-response assay was carried out. With both elicitors, a concentration-dependent induction of sur was observed, yielding optimal upregulation at a final concentration of ˜23 μM (etoposide) and −30 μM (ivermectin) (FIG. 4B). These concentrations induced a ˜10-fold (etoposide) and 4.5-fold (ivermectin) upregulation of surC.
All operations involving RNA utilized a dedicated RNase-free work area. To commence the experiment, seed cultures of wt S. albus J1074 were prepared by inoculating 3 ml of TSBY medium (3% (w/v) tryptic soy broth and 0.5% yeast extract) in a sterile 14 ml bacterial culture tube with freshly-prepared spores (˜10^7). The culture was incubated at 30° C. and 250 rpm in an Ecotron Shaker (ATR). After 48 hours cultivation, the cells were collected by centrifugation and subsequently diluted to a final concentration of 0.05% (w/v) in 250 ml Erlenmeyer flask containing 50 ml of R4 medium. Desired elicitors were added to final concentrations indicated in the figures (typically 1-100 μM), and the cultures were incubated at 30° C. and 250 rpm. After 48 h, 1 ml was removed from each sample and transferred to a 1.5 ml RNase-free Eppendorf tube (Ambion). Each sample was centrifuged (16,000 g, 3 min) to collect the cells, the supernatant discarded, the cells flash-frozen in liquid N2, and stored at −80° C.
RNA isolation was carried out using the Qiagen RNeasy kit following the manufacturer's instructions without modifications. Upon isolation, contaminating DNA was removed using the DNA-free kit (Ambion) according to manufacturer's instructions. Gel electrophoreses subsequently confirmed RNA integrity (FIG. S2). Finally, total RNA was converted into cDNA via the PrimeScript™ RT reagent Kit (Takara) using random hexamers as primers and 500 ng of each RNA sample as template.
Three genes (surA, surC and surR) were chosen for quantification by RT-qPCR. The primers were designed using primer-3-plus software available online. The primers were carefully chosen to give an amplicon length of 130-160 bp and a melting temperature of 60° C., though this was later optimized (see below and Table 2). The primers were chosen to vary in length between 18-22 bp, and, if possible, to contain a single G/C clamp at the 3′ end. To ensure optimal qPCR parameters, the genomic DNA of S. albus J1074 was isolated using the Wizard genomic DNA purification kit (Promega), and each amplicon was subsequently amplified using standard PCR conditions with a high-fidelity, proof-reading Q5 DNA polymerase (NEB). The PCR reactions were then separated on a 1.2% agarose gel, the amplicon excised, and gel-extracted with the Gel Extraction kit (Qiagen). The extracted DNA was used to optimize qPCR conditions. Using the amplicon template, the primer concentrations were first varied followed by the annealing/extension temperatures, which ranged from 58-68° C. in eight steps. The combination that gave the lowest quantification cycle (Cq) was used in the experiments (Table 2). The Cq was obtained with an automatic baseline determined by the CFX Manager Software (Bio-Rad). As positive controls, these standards were included in every plate that contained the experimental samples, along with no-DNA controls, in duplicates.
qPCR analysis was performed on a CFX96 Real-Time PCR Detection System (Bio-Rad) consisting of a C1000 Thermal Cycler and a CFX96 Real-Time System. The reaction was carried out in hard-shell, clear 96-well qPCR plates (Bio-Rad) and utilized the iTaq Universal SYBR Green Supermix (Bio-Rad). […]

In the case of CN[C@@H]1[C@H](O)[C@H](NC)[C@H]2O[C@@]3(O)C(=O)C[C@@H](C)O[C@H]3O[C@@H]2[C@H]1O [Spectinomycin], the “elicitor of gene cluster 3648 (ranking)” value (Gene cluster 3648) is reported as “top four elicitors”, the “upregulation of SAV3643 and SAV3665” value (SAV3643 and SAV3665) is reported as 40-50 fold and the “concentration that inhibited growth” value (S. avermitilis) is reported as “greater than 7.5 ug/mL”.

In the case of CC1(C)CCC2=C(O1)c1ccccc1C(=O)C2=O [beta-Lapachone], the “elicitor of gene cluster 4286 (ranking)” value (Gene cluster 4286) is reported as “top three elicitors”, the “elicitor of gene cluster 2631 (ranking)” value (Gene cluster 2631) is reported as “top three elicitors” and the “elicitor of gene cluster 4143 (ranking)” value (Gene cluster 4143) is reported as “top three elicitors”. The “elicitor of gene cluster 2875 (ranking)” value (Gene cluster 2875) was “top two elicitors” and the “elicitor of gene cluster 4477 (ranking)” value (Gene cluster 4477) was “top three elicitors”.

For COc1cc([C@@H]2c3cc4c(cc3[C@@H](O[C@@H]3O[C@@H]5CO[C@@H](C)O[C@H]5[C@H](O)[C@H]3O)[C@H]3COC(=O)[C@H]23)OCO4)cc(OC)c1O [etoposide], the “induction of the sur cluster in both reporter strains (hit ranking)” value (sur cluster) was “best hits”, the “anti-bacterial effect on S. albus” value (S. albus) was “had anti-bacterial effects on S. albus” and the “upregulation of surC” value (surA and surC; at the optimal elicitor concentration, vs DMSO) was ~10 fold. The “final concentration yielding optimal upregulation of sur” value (surA and surC; dose-response, RT-qPCR) was ~23 µM and the “induction of surA and surC” value (surA and surC; mRNA vs DMSO control, wt S. albus) was 3 fold.
